Data: paper PMC10704437, “Sterol-activated amyloid beta fibril formation” (The Journal of Biological Chemistry, 2023)

Legend:
Aβ42 = target: T1, Aβ42 (Homo sapiens, UniProt P05067); assay: Sterol binding to Aβ42, pre-steady-state stopped-flow fluorescence
T1 construct: Small red spheres mark the Aβ42 peptide C-terminal residue, A42; purchased Sigma-Aldrich Corp
Experimental: To establish the rates at which Aβ42•ligand complexes form and dissociate, the rate constants governing the binding reactions were determined. DHE binding was monitored in real time using a stopped-flow fluorimeter via binding-induced changes in DHE fluorescence. The reactions are pseudo first order in [ligand] and kobs was obtained by least-squares fitting progress curves to a single-exponential equation ([44], [45]). kobs values were determined (in triplicate) at a series of Aβ42 concentrations and the averaged values are plotted versus [Aβ42] in Figure 2B. kon and koff are given by the slope and intercept of the kobs-versus-[Aβ42] plot obtained by linear least-square fitting ([44], [45]). […] The rate constants are compiled in Table 1.
Figure 2 Sterol binding to Aβ42—pre-steady state studies.A, DHE binding. Reactions were monitored via binding induced changes in DHE fluorescence using a stopped-flow fluorimeter (λex = 325, λem > 400 nm). Fluorescence intensity, I, is reported relative to the intensity in the absence of ligand, Io. […] C was rapidly mixed (1:1, v/v) with a solution identical except that Aβ42 was replaced by DHE (40 nM, 2.7 × Kd). The bindingreaction curve shown is the average of five independent progress curves. The averaged curve was a least-squares fit to a single-exponential equation and the resulting best fit (indicated by the red line) yielded kobs. B, DHE kon and koff. kobs values obtained as in Panel A were determined in triplicate at varying Aβ42 concentrations and the averaged values are shown plotted versus [Aβ42]. kon and koff are given by the slope and intercept of a linear least-squares fit of the kobsversus [Aβ42] plot. C and D, CH and CS displacement reactions.
Pre-steady-state binding of sterols to Aβ42 was monitored via the binding-induced change in DHE fluorescence (λex = 325, λem > 400 nm) using an Applied Photophysics SX20 stopped-flow fluorimeter.
Three progress curves (each an average of five independently obtained curves) were collected at five separate Aꞵ42 concentrations. The observed rate constant (kobs) at a given [Aβ42] was obtained by fitting the average of the three curves to a single-exponential equation using Pro-K software ([75]). kon and koff were obtained from the slopes and intercepts predicted by linear least-squares analysis of kobs versus [Aβ42] plots.
C. […] Progress curves were determined in triplicate and koff was obtained by least-squares fitting the averaged curves to a single-exponential equation using Pro-K.

Aβ42 monomer = target: T2, Aβ42 monomer (Homo sapiens, UniProt P05067); assay: Sterol binding to Aβ42, equilibrium DHE fluorescence titrations; settings: direct Aβ42 titration of DHE fluorescence; single-binding-site fit; K2PO4 50 mM, pH 7.4, 25 °C; read-out: Kd
T2 construct: Small red spheres mark the Aβ42 peptide C-terminal residue, A42; purchased Sigma-Aldrich Corp
T2 sequence (P05067 672-713 limits assumed): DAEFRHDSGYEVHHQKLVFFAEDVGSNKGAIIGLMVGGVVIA
Experimental: CH ([27]) and CS ([28]) increase the rate of Aβ aggregation and CH is thought to stabilize fibrils ([29]); yet, the affinities of CH and its metabolites for the Aβ peptide monomer have not been determined. Here, CH and CS affinities for the Aβ42 monomer are established using dehydroergosterol (DHE)—a fluorescent CH analog ([30]) used as a competitive probe to determine CH and CS affinities. Aβ42 monomers were prepared as previously described ([31]) (see Methods). […] Under this condition, Aβ42 essentially quantitatively binds DHE until its concentration exceeds that of DHE, which results in a breakpoint in the titration curve that yields the stoichiometry. The arrow seen descending from the breakpoint indicates a stoichiometry of 1:1, which agrees well with the ∼1:1 CH-metabolite:Aβ stoichiometry estimated from analysis of senile plaques micro-dissected from AD-patient brain tissue ([15]).
Figure 1 Sterol binding to Aβ42at equilibrium.A, DHE affinity for monomeric Aβ4_2. […] Binding was detected via the binding-induced 4.4 (±0.2)-fold increase in DHE fluorescence (λex = 325 nm, λem= 375 nm). Fluorescence intensity, I, is plotted relative to the intensity at zero titrant, I0. Titrations were performed independently in triplicate and the line passing through the data is the least-squares fit to a single-binding-site model. B, Aβ42:DHE stoichiometry. […] C. DHE fluorescence (λex = 325 nm, λem = 375 nm) is plotted versus [Aβ42]/[DHE]. The line descending from the titration breakpoint indicates a stoichiometry of 1:1. C and D, CH and CS affinities. Affinities were determined by competitive binding versus DHE. […] C, was titrated with CH (5.0–500 nM, 0.05–5 × Kd) or CS (5.0–500 nM, 0.15–[…] × Kd). Binding was monitored via the decrease in DHE fluorescence (λex = 325, λem = 375) caused by DHE displacement from Aβ42. Controls ensured that <2.0% of Aβ42 oligomerized during the measurement. Titrations were performed in triplicate and averaged. The solid lines through the data represent least-squares fits to a competitive single-binding-site model. C and D, insets highlight the behavior of the titration over ligand concentrations that span their reported CMCs (indicated by arrows). […]
DHE/Aβ42 binding interactions were monitored via the binding-induced 4.4-fold change in DHE fluorescence (λex = 325 nm, λem= 375 nm). […]
The affinities of CH and CS for Aβ42 were determined in competitive binding studies versus DHE. Binding was detected via the fluorescence decrease (λex= 325 nm, λem = 375 nm) caused by DHE displacement. […] Imax = (fraction DHE-bound to peptide at zero competitive ligands)/4.4 — the fold fluorescence change associated with DHE dissociation, see Figure 1A.

T1 sequence (P05067 672-713 limits assumed): as above

## CC(C)[C@@H](C)/C=C/[C@@H](C)[C@H]1CC[C@H]2C3=CC=C4C[C@@H](O)CC[C@]4(C)C3=CC[C@]12C [DHE, dehydroergosterol, reference compound]
Aβ42; intercept of kobs versus [Aβ42] plot, stopped-flow, pH 7.4, 25 °C
  koff: 1 s⁻¹
Aβ42; ratio of rate constants, read-out: koff/kon
  Kd: 17 nM
Aβ42; slope of kobs versus [Aβ42] plot, stopped-flow, pH 7.4, 25 °C
  kon: 6e+07 M⁻¹ s⁻¹
Aβ42 monomer
  Kd: 16 nM
